Patent US12104173B2, “Method for differentiation of human pluripotent stem cell lines in suspension culture” (AGENCY FOR SCIENCE, TECHNOLOGY AND RESEARCH, priority 2018, dated 2024)

How the values were obtained:
Format in all cases: cell-based, human
[1] = system: D5 O-neg hiPSC line; test: CHIR dose: hematopoietic/erythroid differentiation of agitated hPSC-MC aggregates; details: optimal dose of CHIR-99021, day 4
[2] = system: D9 O-neg hiPSC line; test: as above; details: optimal dose of CHIR-99021, day 4
[3] = system: X13 induced pluripotent stem cells (iPSCs) on microcarriers; test: screening of Wnt pathway activators: mesoderm induction (T-bra, KDR+PDGFRα−) by flow cytometry; details: at 72 hours, compared to other Wnt pathway modulators
Procedure: (A) is a column graph showing two different concentrations of seven Wnt pathway activators (BIO, SB-216763, CHIR98014, Inhibitor VIII, Kenpaullone, DRF053 dihydrochloride and Wnt3a). which were selected from literature reviews and screened with CHIR99021 as a control for the disclosed hematopoietic differentiation protocol. The viability of the X13 induced pluripotent stem cells (iPSCs) on microcarriers were tabulated accordingly 24 hours post treatment of the various Wnt pathway modulators. […] (B) is a column graph showing the percentage of mesogerm induction.
Human induced pluripotent stem cell-microcarrier (hiPSC-MC) aggregates (1×10^6 cells/ml, or 1e6 cells/nil) were transferred to mesoderm induction medium (cytokines all from Stemcell Technologies) plus Stemline II Hematopoietic Stem Cell Expansion medium (SL2) in either 6-well ultra-low attachment plates (5 ml) under continuous agitation at 75 rpm or 125 ml spinner flasks (50 ml) under continuous agitation at 36 rpm. Daily medium changes as indicated: Day 0: SL2+30 ng/ml BMP4+50 ng/ml VEGF-165+40 ng/ml Activin A+12-15 μM CHIR-99021; Day 1: SL2+30 ng/ml BMP4+50 ng/ml VEGF-165+40 ng/ml Activin A; Day 2: SL2+20 ng/ml BMP4+30 ng/ml VEGF165+5 ng/ml Activin A+10 ng/ml bFGF+20 ng/ml SCF+0.4 ng/ml β-estradiol. Samples were collected on day 1 and day 3 for flow cytometry analysis of T-brachyury (T-Bra) and KDR/PDGFRα cells, respectively.

[4] = system: O-neg hiPSC line (D5) expanded in agitated microcarrier cultures; test: DoE multifactorial analysis of KDR+ cells, O-neg hiPSC; details: CHIR exposure for 24 hours, 4 days post differentiation
Excerpt: (B) Plot of KDR levels (%) for respective conditions tested (day 4 post differentiation). Conditions 27, 28 and 29 are triplicates of the same condition tested. […] Act=Activin A; CHI=CHIR-99021 for 24 hr, CH2=CHIR-99021 from 24-48 hr; BMP=BMP4. Computed P-values are indicated below the chart.
These findings were also confirmed using an O-neg hiPSC line (D5) expanded in agitated microcarrier cultures (FIG. 6). […] In summary, from the Design of experiment analysis, it was established that a BMP4 dose of 10 to 50 ng/ml, Activin A dose of 25 to 50 ng/ml and exposure of CHIR for 24 hours at a dose of 6 to 12 μM would be efficient for the generation of KDR+ cells.
Design of experiments (DoE) using a resolution IV Fractional Factorial Design was performed using the MODDE software (Sartorius Stedim Biotech, Germany) to evaluate initial BMP4, Activin A and CHIR-99021, doses and duration of exposure for their effects on the following response factors: induction of KDR+ cells 4 days post mesoderm induction or total hematopoietic precursors generated 2 weeks post differentiation. […]

[5] = system: X13 O-neg hiPSC line; test: CHIR dose: hematopoietic/erythroid differentiation of agitated hPSC-MC aggregates; details: optimal dose of CHIR-99021, day 4
[6] = system: BR7 O-neg hiPSC line; test: as above; details: optimal dose of CHIR-99021, day 4

What does the source list for `Cc1c[nH]c(-c2cnc(NCCNc3ccc(C#N)cn3)nc2-c2ccc(Cl)cc2Cl)n1` [CHIR-99021, 6-[[2-[[4-(2,4-Dichlorophenyl)-5-(5-methyl-1H-imidazol-2-yl)-2-pyrimidinyl]amino]ethyl]amino]-3-pyridinecarbonitrile]?
Mesoderm induction % KDR+ PDGFRα− [1]: 35.8%; Mesoderm induction % KDR+ PDGFRα− [2]: 20.9%; KDR+PDGFRα− population [3]: significantly highest; effect of factor on KDR+ cells (DoE) [4]: significant factors for increased KDR+ cells; Mesoderm induction % KDR+ PDGFRα− [5]: 40.8%; Mesoderm induction % KDR+ PDGFRα− [6]: 18.6%
